Measurements as given in patent US10316037B1, “Compounds and methods for treating cancer” (YALE UNIVERSITY, priority 2016, dated 2019).

System: cancer cell lines
Test: Anti-cancer activity, CellTiter-Glo luminescence after 72 hours compound treatment
Format: cell-based
Details: cell line not stated, 4-parameter fit inflection point (IC50)
Method: Compounds to be tested for anti-cancer activity were submitted dry, dissolved to 10 mM stocks in DMSO, and stored protected from light at −80° C. until use. DMSO vehicle control wells, and 3 fold serial dilutions of compounds from 10 mM to 6.2 nM were prepared in 384 well plates. Kinamycin and tamoxifen were also added as controls in this manner.
LN2 aliquots of cancer cells (indicated in the tables of FIGS. 3 and 4) were cultured at YCMD and plated in Corning 3707 TC plates at 400 cells/well initial seeding density in 20 uL of growth medium. Cells were incubated overnight at 37′C in a humidified 5% CO2 incubator, and treated with compounds.
20 nL of compound was dispensed into the assay plates using a 384-well pin tool on the Tecan Aquarius. Final assay compound treatments ranged from 10 uM to 6.2 pM, 0.1% DMSO. […]
For assay readout CellTiter-Glo (Promega) was prepared according to manufacturer's instructions and 20 uL/well was added to assay plates using a MultiDrop. Luminescence was read on an Envision plate reader (Perkin Elmer) with 0.3 second sampling time per well after a 10 min. room temperature incubation in the dark.
Toxic effects have low luminescence signal relative to the vehicle control […]. Raw data (luminescence counts per second) were normalized to percent effect by the formula: […]. […]

| IC50 | SMILES |
| --- | --- |
| 35 nM | C[C@H](N)CCc1c2c(cc(=O)n1Cc1nc(-c3nc(C(=O)NCCN(C)C)cs3)cs1)C1(CC1)NC2=O [compound 17a] |
| 11 nM | CSCCCNC(=O)c1csc(-c2csc(Cn3c(CC[C@H](C)NC(=O)OC(C)(C)C)c4c(cc3=O)C3(CC3)NC4=O)n2)n1 [compound S4] |
